Source: US20250200763A1, “4D FLUORESCENCE MICROSCOPY ORGANELLE NETWORK TRACKING” (THE REGENTS OF THE UNIVERSITY OF CALIFORNIA, priority 2022, published 2025)
“Also recorded” adds a separate entry of the source.

Key:
[1] = tested on: mitochondrial network in hiPSCs; assay: Mitochondrial network motility and motion correlation analysis by node tracking; format: cell-based, human
From the text: To measure the network motility of the mitochondrial network, mean-square-displacements (MSDs) vs. time delay curves are computed following previous works. The node ensemble averaged MSDs are plotted for control and oligomycin (See FIGS. 24A and 24B). The MSDs for single tracks are plotted for control and oligomycin (See FIGS. 24C and 24D). Around 80% of the nodes have a coefficient of determination for linear fit greater than 0.8 (see FIG. 15F). To map diffusivity onto mitochondrial nodes, the network nodes are firstly chosen at a center frame. Next, the node track coordinates 10 frames before and 10 frames after the center frame are collected. In a last step, the MSDs are computed at various time delays in this time window to determine the diffusivity of each node.
To compute vector correlation, the displacement vector is firstly obtained for a selected node at a selected frame. Next, the vector correlation is computed, as well as the vectors for the selected node at timepoints 1 frame before and after the selected frame. The vector correlation is computed between this vector and vectors for the nodes directly connected to it and given by the dot product of two vectors, divided by the square of the norm of the longer vector. The final correlation value for the selected node at the selected time is reported as the average of these two values.
To further investigate network branch motility, tracking vectors correlated between adjacent nodes on the same segment, and between the same node at consecutive frames. […] In contrast, temporal correlation between frames is predominantly zero (random motion) to slightly negative (oscillating motion), while interspersed with short period of positive values (directional motion) as shown in FIG. 16E. […] In FIG. 16F, the correlation along skeleton 1610 and the correlation in time 1620 are shown. The ATP synthase inhibitor oligomycin that induces mitochondrial fragmentation was employed to investigate if motion correlation findings are dependent upon network morphologies as shown in FIGS. 16G and 16H. […]

[2] = tested on: mitochondrial network in hiPSCs; assay: Mitochondrial temporal network remodeling (mean degree difference, temporal intersection) from MitoTNT 4D tracking of LLSM data; format: cell-based, human; details: drug-treated; for mean degree difference (DD): control DD 0.28, low DD = little remodeling; for temporal intersection (TI): control TI 0.58, low TI = drastic remodeling
Method: To quantify mitochondrial network remodeling, the mean degree difference (DD) and the temporal intersection (TI) were calculated. A low DD indicates a low rate of nodes breaking off from their neighbors and reconnecting with other nodes. Inversely, a low TI implies that the network is very dynamic and does undergo drastic remodeling. […] In contrast, when treated with oligomycin, it was observed a 0.52 DD and 0.44 TI indicating a high level of network remodeling. Cytoskeleton influences drive network remodeling events were hypothesized.
Human induced pluripotent stem cell (hiPSC) culture: All studies involving hiPSCs were performed under approval from the University of California San Diego IRB/ESCRO committee. WTC hiPSCs expressing the CAAX domain of K-ras tagged with m TagRFP-T were created at the Allen Institute for Cell Science and obtained through the UCB Cell Culture Facility. hiPSC colonies were expanded on dishes coated with growth factor reduced Matrigel (Corning, 354230) in mTeSR1 (Stemcell Technologies, 85850) containing 1% penicillin/streptomycin (Gibco, 15140122). Colonies were washed with DPBS (Gibco, 14190144) and detached with accutase (Stemcell Technologies, 07920) before plating onto imaging dishes. Cultures were tested routinely for mycoplasma.
Drug Treatments: All drugs were dissolved in DMSO to make a stock solution and diluted in PBS to prepare a 100× working stock. Cells were treated with oligomycin (20 μM, 2 hr), nocodazole (5 uM, 30 min), and MDIVI-1 (10 μM, 12 hr) without wash.
Live cell imaging: 371 CAAX-RFPhiPSCs were stained with 100 nM Mito Tracker Green FM (Invitrogen, M7514) for 30 min prior to imaging. Cells were plated onto 25 mm MatTek dishes and imaged in phenol-red free mTeSR1 (Stemcell Technologies, 85850). Cells were kept under 5% CO2 and 37 degrees C. For imaging, Zeiss LLSM 7 was used with 10×N.A. 0.4 illumination objective lens and 48×375 N.A. 1.0 detection objective lens. Images were acquired in two channels: green channel with excitation at 488 nm and emission at 512 nm; red channel with excitation at 561 nm and emission at 597 nm. For both channels we used 18% laser power and 8 ms exposure. The illumination light-sheet was the Sinc3 beam with length 15 μm, thickness 650 nm and no side lobes. The volume size was 2048×448×57 pixels or 296.94×64.96×8.12 μm with isotropic pixel size 145 nm after coverglass transformation. Images were saved with bit depth 16 bits. For each region, 93 frames were imaged with frame rate 3.26 s per volume for total 5 min. For LLSM data processing, the Lattice Lightsheet 7 Processing Module on ZEN Blue was used for deconvolution, deskew, and cover glass transformation. Further processing is then done using MitoGraph and MitoTNT.

[3] = tested on: mitochondrial network in hiPSCs; assay: Network reachability: random walk / material diffusion simulation on tracked temporal mitochondrial networks; format: cell-based, human; details: drug-treated, control 0.18
Method: To quantify transport across the 4D mitochondrial network, a random walk on the tracked temporal mitochondrial networks was simulated and the process was measured in the form of network reachability (see “Material diffusion simulation on temporal mitochondrial networks”). Reachability for a node indicates how easily can material/information reach this node from various parts of the overall network, via the time respecting paths defined by the network tracking.
Diffusion simulation was used on temporal dynamic mitochondrial network to understand the flow of material in mitochondrial networks. To calculate global reachability, we initiate a virtual token at every node of the mitochondrial network at the first timestep. Each token is labeled by the source node from which it originated. At every timestep, each node duplicates the tokens it currently has, and transfers them to the connected neighbors. At the end of the simulation, the global reachability for each node is quantified by the number of unique tokens at that node, corresponding to the number of source nodes this node can reach.
FIGS. 25A and 25B illustrate schematics for material diffusion simulation on temporal network. FIG. 25A illustrates the global reachability simulation. From each node, material can diffuse into the neighboring nodes or stay in the source node. All possible diffusion pathways over time are marked with an arrow. Time is depicted from left to right. Arrows in different thicknesses 2502, 2504, 2506, 2508, 2510, 2512 indicate representative simulation scenarios. After four timesteps, the target node labeled with X has accumulated three tokens (through the transport arrows). FIG. 25B illustrates the calculation for betweenness centrality used for determining the central nodes.
Drug Treatments: All drugs were dissolved in DMSO to make a stock solution and diluted in PBS to prepare a 100× working stock. Cells were treated with oligomycin (20 μM, 2 hr), nocodazole (5 uM, 30 min), and MDIVI-1 (10 μM, 12 hr) without wash. […]

[4] = tested on: mitochondria networks in cells; assay: Distribution of graph size ratio for fission/fusion events (preliminary 4D network tracking); format: cell-based; details: microtubule-disrupted cells vs DMSO control cells
Method: Preliminary results. 4D mitochondrial network tracking and fission/fusion statistics analysis indicate a selection bias in fission and fusion reaction in normal cells, which is not present when cells are treated with nocodazole. FIGS. 3A and 3B show data plots depicting a distribution of graph size ratio for fission/fusion events. Depicted is the normalized mitochondria fragment size immediately after or before fission or fusion events, respectively. Graph size ratio for a particular mitochondria undergoing fission/fusion computed as the size of the mitochondria network normalized by the total size of all mitochondria networks involved. Values close to 0 and 1 correspond to small and large mitochondria relative to the total size. The metric is calculated and plotted for every fragment undergoing detected fission/fusion events. FIGS. 3A and 3B illustrate histogram bars and gaussian-smoothed curves for fission and fusion. The gaussian-smoothed curves 310 and 330 are for fission and the gaussian-smoothed curves 320 and 340 are for fusion.

[5] = tested on: mitochondrial network in hiPSCs; assay: Fission/fusion preference with respect to fragment size (normalized network fragment size difference); format: cell-based, human; details: hiPSCs with disrupted microtubules, vs DMSO control
Method: To detect fission and fusion events in the network, a sliding-window approach is applied to identify nodes that undergo persistent structural changes as opposed to transient segmentation variations. First, the fragment indices for each node are recorded for the half win size frames before and after the current frame, to form the fragment list. Second, for each network edge, the fragment lists for the connected nodes are compared. Fission will be declared if the fragment lists before the current frame are strictly identical, as well as the fragment lists after the current frame are strictly non-overlapping. Since fusion events can be considered as fission events reversed in time, the opposite criterion is used for fusion detection. In the case that multiple remodeling nodes are located in proximity (less than 5 edges away), the nodes are grouped into a single fission/fusion site. At last, the center of the sliding window is moved to the next frame and the computation is iterated.
To provide mechanistic insights into network remodeling, the motility between randomly selected nodes and nodes undergoing fission and fusion was compared. […] Based on node tracking, each individual mitochondrial network fragment can be tracked as shown in FIG. 17C and the selectivity of fission and fusion events recorded in terms of fragment size. […]

| Compound | motility of drug induced fragments ([1]; vs DMSO control) | spatial motion correlation (along skeleton) ([1]; vs control) | temporal motion correlation (between frames) ([1]; vs control) | mean degree difference (DD) [2] | temporal intersection (TI) [2] | average reachability of network nodes [3] | distribution of graph size ratio for fission/fusion events (selection bias) [4] | asymmetric fission/fusion events [5] |
| --- | --- | --- | --- | --- | --- | --- | --- | --- |
| CC[C@H]1/C=C/C=C/C[C@@H](C)[C@H](O)[C@@](C)(O)C(=O)[C@@H](C)[C@H](O)[C@@H](C)C(=O)[C@@H](C)[C@H](O)[C@@H](C)/C=C/C(=O)O[C@@H]2[C@H](C)[C@H](CC1)O[C@]1(CC[C@H](C)[C@H](C[C@@H](C)O)O1)[C@H]2C [oligomycin] | move considerably faster compared to control | dropped | remains similar | 0.52 | 0.44 | 0.64 |  |  |
| COC(=O)Nc1nc2ccc(C(=O)c3cccs3)cc2[nH]1 [nocodazole] |  |  |  | did not induce drastic changes | did not induce drastic changes | 0.29 | not present; also recorded: flatter distribution | less pronounced but preserved; also recorded: a decrease in asymmetric fission/fusion |
| COc1cc(-n2c(=S)[nH]c3ccccc3c2=O)c(Cl)cc1Cl [mdivi-1] |  |  |  |  |  | 0.35 |  |  |
